According to PubChem BioAssay (NCI):
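Grown in 96-well plates, cells were treated for 48 hours with each compound at five concentrations. Insufficient inhibition: endpoint recorded as highest concentration tested. Here, GI50 denotes the concentration required for 50% inhibition of growth. At the TGI there is no net growth.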

Assays:
Assay in all cases: DTP human tumour cell line panel, 48 h
RPMI-8226 leukemia = test system: RPMI-8226 leukemia
SF-268 CNS = test system: SF-268 CNS
OVCAR-4 ovarian = test system: OVCAR-4 ovarian
NCI/ADR-RES ovarian = test system: NCI/ADR-RES ovarian
M14 melanoma = test system: M14 melanoma
OVCAR-8 ovarian = test system: OVCAR-8 ovarian
NCI-H226 lung = test system: NCI-H226 lung
MDA-MB-435 = test system: MDA-MB-435
MDA-MB-231 breast = test system: MDA-MB-231 breast
ACHN renal = test system: ACHN renal

Structure (SMILES)	TGI (RPMI-8226 leukemia) [µM]	TGI (SF-268 CNS) [µM]	TGI (OVCAR-4 ovarian) [µM]	TGI (NCI/ADR-RES ovarian) [µM]	TGI (M14 melanoma) [µM]	TGI (OVCAR-8 ovarian) [µM]	TGI (NCI-H226 lung) [µM]	TGI (MDA-MB-435) [µM]	TGI (MDA-MB-231 breast) [µM]	TGI (ACHN renal) [µM]	GI50 (MDA-MB-435) [µM]
O=[N+]([O-])c1ccc2nc3c(nc2c1)-c1c2ccccc2cc2cccc-3c12	98.8	> 100	> 100	28.3	> 91.7	> 30.6	> 100	> 83.9	64.2	–	–
Cc1cc2c(cc1Cl)SC(NNc1cnc3ccccc3n1)=NS2(=O)=O	–	> 100	> 100	> 100	> 100	> 100	> 100	> 100	> 100	> 100	–
CC1=CCC[C@H]2[C@](C)(CC3=CC(=O)C4SCCSC4C3=O)[C@@H](C)CC[C@]12C (stereo partly specified)	41.8	–	> 100	47.2	29.8	39.6	30.3	58.7	46.7	46.1	–
CCN(CC)C(=S)SS(=O)(=O)c1ccc(C)cc1	–	> 100	> 100	> 100	28.2	40.2	> 100	> 100	> 100	> 100	–
O=c1oc2ccccc2c2nc3ccccc3cc12	> 100	–	47.7	> 100	> 100	> 100	> 100	> 100	> 100	> 100	–
O=C1NN=C(c2c[nH]c3ccccc23)CC1NCc1ccccc1 (stereo unspecified)	> 100	> 100	–	> 100	> 100	> 100	> 100	> 100	> 100	> 100	–
Cc1cc(C)nc(NS(=O)(=O)c2ccc(Nc3c4ccccc4nc4c(C(=O)N5CCN(CCOS(C)(=O)=O)CC5)ccc(Cl)c34)cc2)n1	> 100	> 100	> 100	–	> 100	> 100	> 100	–	–	> 100	–
CC12CCC(C/C1=N\NC(N)=O)C2(C)C (stereo unspecified)	> 100	> 100	> 100	> 100	> 100	> 100	> 100	> 100	–	> 100	–
NC(=O)NC(=NCc1ccccc1)NCc1ccccc1	–	> 100	> 100	–	> 100	> 100	–	–	–	> 100	–
COC(=O)c1cc(C(=O)OC)cc(-c2ccc3c(c2)-c2nc4c(c(-c5ccc(OC)cc5)c2CC3)CCc2ccc(-c3cc(C(=O)OC)cc(C(=O)OC)c3)cc2-4)c1	> 100	> 100	> 100	> 100	> 100	–	> 100	> 100	> 100	> 100	–
COC(=O)C(CCCCNC(=O)CNC(=O)OCc1ccccc1)NC(=O)C(CCCCNC(=O)CNC(=O)OCc1ccccc1)NC(=O)OCc1ccccc1 (stereo unspecified)	53.5	> 100	89.9	–	> 100	> 100	> 100	> 100	> 100	> 100	–
CCOP(=O)(OCC)c1cc(-c2ccccc2)ccc1N	> 100	> 100	> 100	> 100	> 100	> 100	–	> 100	> 100	> 100	–
COC(=O)C(=O)C(C(=O)C(=O)Nc1cc([N+](=O)[O-])ccc1C#N)c1nc2ccccc2[nH]c1=O (stereo unspecified)	–	> 100	> 100	–	> 100	> 100	> 100	–	–	> 100	–
CCC1C(=O)OCc2c1cc1n(c2=O)CCC12OCCO2 (stereo unspecified)	> 100	> 100	> 100	–	> 100	> 100	> 100	–	–	> 100	–
CC1=C(C(=O)NNC(=O)CC#N)CC(C(=O)NNC(=O)CC#N)=C(C)N1	–	> 100	> 100	> 100	> 100	> 100	> 100	> 100	> 100	> 100	–
COC(=O)c1sc2ncc3c(c2c1N)CC(C)CC3 (stereo unspecified)	> 100	> 100	> 100	> 100	> 100	–	> 100	> 100	> 100	> 100	–
COP(=O)(CC(=O)C1OC(OCc2ccccc2)C(OCc2ccccc2)C(OCc2ccccc2)C1OCc1ccccc1)OC (stereo unspecified)	–	> 100	8.89	90.2	70	> 100	54	27.9	61.1	23.2	–
COc1cc(OC)c(C2c3cc4c(cc3OC(N3CCOCC3)C2C)OCO4)c(OC)c1 (stereo unspecified)	> 100	> 100	–	> 100	> 100	> 100	–	> 100	–	82.4	–
O=C(O)c1cc2ccccc2c(S(=O)(=O)O)c1O	> 100	> 100	> 100	> 100	> 100	> 100	–	> 100	> 100	> 100	–
CCOC(=O)C(NC(=O)c1ccc(N=NN(C)C)cc1)C(C)C (stereo unspecified)	> 100	> 100	> 100	–	> 100	> 100	> 100	–	–	> 100	–
CC1(C)OC(CCO)CN1C(=O)OCc1ccccc1 (stereo unspecified)	> 100	–	> 100	> 100	> 100	> 100	> 100	> 100	> 100	> 100	–
Cc1ccc(C(=O)c2[nH]c(Nc3cc(C)ccn3)c(C(=S)Nc3ccccc3)c2N)cc1	–	> 100	> 100	> 100	> 100	> 100	> 100	> 100	> 100	> 100	–
Cc1ccc(-n2cc(-c3ccc(Cl)cc3)c3c2N=CN2NC(c4ccco4)=NC32)cc1 (stereo unspecified)	–	83.6	4.03	86.6	> 100	27.5	68.6	> 100	26	24.5	–
COc1cc2c3c(n(C)c(=O)c2cc1OC)-c1cc2c(cc1/C3=C/CCCCBr)OCO2	64.5	> 100	–	> 100	> 100	> 100	–	> 100	> 100	> 100	> 100
